Data: patent US20090208620A1, “Alimentary Compositions and Methods For Metabolic Modulation” (VDF FUTURECEUTICALS, INC., priority 2003, published 2009)
Several values for one entry are separate records, joined by “and”; a condition that tells them apart may be missing. Equal entries are not always repeated.

Tests used:
activated Akt = assay: Western immunoblot for activated (phospho-Ser473) Akt in muscle cells; type: cell-based, mouse; conditions: for FOLD AKT ACTIVATION (OVER CONTROL): cells treated 30 minutes at 37° C; for effect on Akt activity (in words): no concentration stated
Method: (§1) The levels of Glut-4, activated AMPK and activated Akt were measured in mouse muscle cells C2C12 (from ATTC) and in primary culture of human skeletal muscle cells (Clonetics, Inc.) using Western immunoblotting. C2C12 cells were plated at 1.5×1-exp5 cells per mL/well (12-well plate) in standard cell culture medium (DMEM supplemented with 10% fetal bovine serum (FBS), 25 mM glucose, 20 mM Hepes, 4 mM glutamine and 2 mM sodium pyruvate. 48 hrs after the plating, medium was changed to differentiation medium (DMEM supplemented with 5 mM of glucose and 0.5% of FBS) for next 3-4 days to stimulate the formation of myotubes. Three hours before the treatment with selected agents, cells were washed with PBS and transferred to PBS supplemented with 5 mM of glucose.
(§2) Human skeletal muscle cells (HSKM) were cultured in SKBM-2 mediums provided by Clonetics. 48 hrs after cell plating, medium was changed to SKBM medium to stimulate differentiation of the cells to myotubes. When differentiated, the myotubes were transferred to PBS supplemented with 5 mM glucose for three hrs before the treatment.
(§3) Analysis of C2C12 cells for the level of activated AMPK, Akt and the level of GLUT-4 was performed in the same experimental system. The cells were treated for 30 minutes at 37° C. […] Subsequently, 20 μg per sample of sample protein was used for Western analysis using NuPage 10% Bis/Tris gels (Invitrogen). After exposure of membranes to primary and secondary antibodies AMPK, AKT or Glut-4 was detected using ECL-Plus (Amersham) following producer's instruction. Chemilumiscent signals were detected by using ChemiDoc system from Biorad. Intensity of detected signals were analyzed and measured using Quantity One software (Biorad). Alternatively, the level of phosphorylated AMPK was detected using ECL kit from Amersham and short exposure to Kodak films.
(§4) Experimental setup: Cell Culture was followed by treatment with selected contemplated compounds, which was followed by cell lysis and western blot analysis for AMPK, Akt, GLUT4, total AMPK, and total Akt. Signals were acquired accordingly.

activated AMPK = assay: Western immunoblot for activated (phospho-Thr172) AMPK in muscle cells; type: cell-based, mouse; conditions: for FOLD AMPK ACTIVATION (OVER CONTROL): cells treated 30 minutes at 37° C; for effect on AMPK activity (in words): no concentration stated
Method: as §1, §2, §3, §4

Insulin
FOLD AKT ACTIVATION (OVER CONTROL) (activated Akt; 0.10 nanoM): 1.75 fold | FOLD AKT ACTIVATION (OVER CONTROL) (activated Akt; 25.0 nanoM): 3.40 fold | FOLD AKT ACTIVATION (OVER CONTROL) (activated Akt; 50.0 nanoM): 3.28 fold

C/C(=C\CNc1ncnc2nc[nH]c12)CO [Trans-Zeatin]
FOLD AMPK ACTIVATION (OVER CONTROL) (activated AMPK; 1.0 microM): 2.33 fold | FOLD AMPK ACTIVATION (OVER CONTROL) (activated AMPK; 10.0 microM): 4.27 fold | FOLD AKT ACTIVATION (OVER CONTROL) (activated Akt; 1.0 microM): 0.90 fold | FOLD AKT ACTIVATION (OVER CONTROL) (activated Akt; 10.0 microM): 0.86 fold

C/C(=C\CNc1ncnc2[nH]cnc12)CO [Zeatin]
FOLD AMPK ACTIVATION (OVER CONTROL) (activated AMPK; 1.0 microM): 2.33 fold and 2.15 fold | FOLD AMPK ACTIVATION (OVER CONTROL) (activated AMPK; 10.0 microM): 2.04 fold | effect on AMPK activity (in words) (activated AMPK): potent stimulator of AMPK | FOLD AKT ACTIVATION (OVER CONTROL) (activated Akt; 1.0 microM): 0.95 fold | FOLD AKT ACTIVATION (OVER CONTROL) (activated Akt; 10.0 microM): 1.36 fold | effect on Akt activity (in words) (activated Akt): not Akt

OC[C@H]1O[C@@H](n2cnc3c(NCc4ccco4)ncnc32)[C@H](O)[C@@H]1O [Kinetin Riboside]
FOLD AMPK ACTIVATION (OVER CONTROL) (activated AMPK; 3.0 microM): 12.00 fold | FOLD AKT ACTIVATION (OVER CONTROL) (activated Akt; 0.8 microM): 3.71 fold | FOLD AKT ACTIVATION (OVER CONTROL) (activated Akt; 2.0 microM): 5.14 fold | FOLD AKT ACTIVATION (OVER CONTROL) (activated Akt; 5.0 microM): 3.32 fold

CC(=O)Nc1ccn([C@@H]2O[C@H](CO)[C@@H](O)[C@H]2O)c(=O)n1 [N^4-Acetyl-Cytidine]
FOLD AKT ACTIVATION (OVER CONTROL) (activated Akt; 0.8 microM): 2.45 fold | FOLD AKT ACTIVATION (OVER CONTROL) (activated Akt; 2.0 microM): 1.46 fold and 1.50 fold | FOLD AKT ACTIVATION (OVER CONTROL) (activated Akt; 5.0 microM): 1.64 fold and 1.36 fold

Nc1nc2c(ncn2[C@@H]2O[C@H](CO)[C@@H](O)[C@H]2O)c(=O)[nH]1 [Guanosine]
FOLD AMPK ACTIVATION (OVER CONTROL) (activated AMPK; 5.0 microM): 3.70 fold | effect on AMPK activity (in words) (activated AMPK): potent activators of AMPK | effect on Akt activity (in words) (activated Akt): potent activators of AMPK as well as Akt

c1ccc(CNc2ncnc3nc[nH]c23)cc1 [Benzyl-Adenine]
FOLD AMPK ACTIVATION (OVER CONTROL) (activated AMPK; 0.5 microM): 2.18 fold | FOLD AMPK ACTIVATION (OVER CONTROL) (activated AMPK; 5.0 microM): 2.70 fold | FOLD AMPK ACTIVATION (OVER CONTROL) (activated AMPK; 50.0 microM): 2.92 fold
